Test results as given in patent publication US5356935A, “Reduced phenanthrenes” (Eli Lilly and Company, priority 1993, dated 1994).

What was measured:
[1] = target: T1, Type I 5α-reductase (Homo sapiens, UniProt P18405); experiment: Human Type I steroid 5α-reductase assay (human scalp enzyme, [3H]-testosterone conversion); assay type: biochemical; settings: compared to control reaction mixtures, read-out: percent inhibition of Type I 5AR; for inhibition at 0.01 µM: compound concentration .01 μM; for inhibition at 0.03 µM: compound concentration .03 μM; for inhibition at 0.1 µM: compound concentration .1 μM
T1 construct: Scalp punch biopsies from graft recipient sites were obtained from human hair transplant procedures; from tissue; host or cells: human scalp punch biopsies (pooled, 60-75 punches from one surgical procedure), 100,000×g pellet of homogenate
T1 sequence (P18405 1-259): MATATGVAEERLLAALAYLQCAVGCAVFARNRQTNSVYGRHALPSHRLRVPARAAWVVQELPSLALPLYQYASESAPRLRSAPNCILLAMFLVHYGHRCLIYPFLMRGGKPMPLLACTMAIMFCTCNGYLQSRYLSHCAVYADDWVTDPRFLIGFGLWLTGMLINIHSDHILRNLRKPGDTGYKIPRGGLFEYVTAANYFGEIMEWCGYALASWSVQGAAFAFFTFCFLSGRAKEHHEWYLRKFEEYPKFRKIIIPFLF
Description: Scalp punch biopsies from graft recipient sites were obtained from human hair transplant procedures immediately after surgery and were frozen on dry ice and stored at -80° C. Approximately 60-75 punches from one surgical procedure were used to generate an enzyme preparation. The subcutaneous tissue was cut away and discarded. The skin was frozen with liquid nitrogen and pulverized to powder. The powder was homogenized in 30 ml of ice-cold buffer (20 mM Tris-HCl, pH 7.5) using a Brinkmann Polytron (Westbury, N.Y.) with a PTA 10-S robe and a setting of 7. The homogenization procedure consisted of four 15 second pulses. Connective tissue was cleared from the probe with forceps between pulses. The homogenate was then filtered through cheese cloth and the filtrate centrifuged at 100,000×g for one hour in a Beckman L8-60M ultracentrifuge. The pellet was resuspended by homogenization with a Dounce homogenizer using the same buffer solution. An aliquot was taken for protein determination by the Lowry method, Lowry, et al., Protein Measurement with the Folin Phenol Reagent, J. Biol. Chem., 193,265-75 (1951). Aliquots of the enzyme preparation were stored at -80° until use.
(§1) This enzyme assay is based on the conversion of [^3 H]-testosterone to [^3 H]-5α-dihydrotestosterone (DHT) and other 5α-reduced metabolites. While about 90% of the 5α-reduced metabolites formed in these assays was DHT, androstanedione was formed at about 10%. Essentially no androsterone was detected. In a total volume of 1.0 ml, the assay contained 2.6 μCi [^3 H]-testosterone (50 nM), 500 μM of reduced nicotine adeninc dinucleotide phosphate, 100 mM Tris-HCl, pH 7.5, (in Type II assays, 40 mM sodium acetate at pH 5.5 is used instead of Tris-HCl) and test compounds as indicated. Test compounds were added in 20 μl of dimethylsulfoxide (20 μl of dimethylsulfoxide was added to blanks and controls). The reaction was initiated by the addition of 0.5 mg of Type I or Type II 5α-reductase. The reaction mixture was incubated for 30 min at 25° and terminated by the addition of 1 ml ice-cold stopping solution. The stopping solution contained 40 μM each of non-radioactivetestosterone, DHT, androstenedione, androstanedione, androsterone, androstan-3β,17β-diol, and androstan-3α,17β-diol.
(§2) The samples were prepared for high performance liquid chromatography by solid phase extraction. Disposable solid matrix extraction columns (C-18 reversed;phase, 6 ml, 500 mg; Bond Elut™ from Analytichem International; Harbor City, Calif.) were conditioned by washing with 5 ml of methanol followed by 5 ml of deionized water. The reaction mixtures were then applied to the columns. The columns were subsequently washed with 5 ml of acetone:water (1:4), followed by 0.3 ml of methanol. The samples were then eluted with 3 ml of methanol and collected in 20 ml scintillation vials. Three ml of water was then added to each scintillation vial. The solutions were then transferred to tubes and centrifuged for 30 min at 1000×g to remove any particulate material before chromatography.
(§3) The [^3 H]-testosterone substrate and its metabolites were separated by chromatography using a C-18 reversed phase column (Beckman Ultrasphere 5 μm spherical 80A pore, part no. 235329, 4.6 mm i.d.×[…]) with an isocratic mobile phase (46 water: 46 methanol: 8 tetrahydrofuran by volume). The column temperature was maintained at 35° and the flow rate was 1.5 ml/min. A 400 μl aliquot was injected onto the column and radioactivity was determined using a Beckman 171 in-line flow radioisotope detector in conjunction with Rainin Dynamax™ software and a Macintosh computer. The flow rate of the Atomflow™ scintillation fluid was 4.5 ml / min.

[2] = target: T2, Type II 5α-reductase (Homo sapiens, UniProt P31213); experiment: Human Type II steroid 5α-reductase assay (human prostate enzyme, [3H]-testosterone conversion); assay type: biochemical; settings: compared to control reaction mixtures, read-out: percent inhibition of Type II 5AR; for inhibition at 1 µM: compound concentration 1 μM; for inhibition at 3 µM: compound concentration 3 μM; for inhibition at 10 µM: compound concentration 10 μM; for inhibition at 0.3 µM: compound concentration .3 μM
T2 construct: from tissue; host or cells: human prostate tissue from surgery, 100,000×g pellet of homogenate
T2 sequence (P31213 1-254): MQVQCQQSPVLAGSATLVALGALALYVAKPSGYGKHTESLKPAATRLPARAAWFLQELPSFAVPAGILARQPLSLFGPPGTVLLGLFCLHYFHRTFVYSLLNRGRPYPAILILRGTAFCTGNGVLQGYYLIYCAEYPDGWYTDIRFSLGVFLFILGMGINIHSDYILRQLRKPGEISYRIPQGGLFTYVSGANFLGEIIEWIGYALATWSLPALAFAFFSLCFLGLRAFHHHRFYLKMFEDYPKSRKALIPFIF
Description: The same procedure as above was used for preparations using tissue from prostate surgery with the following changes: The buffer used was 20 mM sodium phosphate, pH 6.5; and the pellet was resuspended in the sodium phosphate buffer containing 20% glycerol.
as §1, §2, §3

C[C@]12CCC(=O)C(N)=C1CCc1cc(Cl)ccc12 [Example 1, (R)-1-amino-7-chloro-4,4a,9,10-tetrahydro-4a-methyl-2(3H)-phenanthreneone]
inhibition at 0.01 µM [1]: 0% | inhibition at 0.03 µM [1]: 35% | inhibition at 0.1 µM [1]: 42% | inhibition at 1 µM [2]: 55% | inhibition at 3 µM [2]: 49% | inhibition at 10 µM [2]: 63% | inhibition at 0.3 µM [2]: 47%

C[C@]12CCC(=O)C(N)=C1C=Cc1cc(Cl)ccc12 [Example 2, (R)-1-amino-7-chloro-4,4a-dihydro-4a-methyl-2(3H)-phenanthreneone]
inhibition at 0.01 µM [1]: 0% | inhibition at 0.03 µM [1]: 3% | inhibition at 0.1 µM [1]: 26% | inhibition at 1 µM [2]: 16% | inhibition at 3 µM [2]: 33% | inhibition at 10 µM [2]: 36% | inhibition at 0.3 µM [2]: 7%
